Data on 10 compounds can be found in patent US8791163B2 (McGill University, priority 2006, dated 2014).

Assay [1] has as its target T1, cloned human MT1 receptors (Homo sapiens, UniProt P48039).
T1 construct: expressed in transfected cells
Description: [35S]GTPγS binding assay, NIH3T3 cells expressing human MT1. On MT1 Activity: key: A = agonist; PA = partial agonist; ANT = antagonist; IA = Inverse agonist. It is filed as biochemical. As to conditions: for MT1 IAr ± SEM (relative intrinsic activity): maximal net effect relative to MLT. As to the method: (§1) Membranes were incubated for 90 min at 37° C. in binding buffer (Tris/HCl 50 mM, pH 7.4). The final membrane concentration was 5-10 μg of protein per tube. […] The pKi values are the mean of at least three independent determinations performed in duplicate. To define the functional activity of the compounds of Formula (I) at the MT1 and MT2 receptor subtypes, [^35S]GTPγS binding assays in NIH3T3 cells expressing human-cloned MT1 or MT2 receptors were performed. The amount of bound [^35S]GTPγS is proportional to the level of analogue-induced G-protein activation and is related to the intrinsic activity of the compound (i.e. a compound of Formula (I)) under study. […] Nonspecific binding was assessed using non-radiolabeled GTPγS (10 μM). […] Basal stimulation is the amount of [^35S]GTPγS specifically bound in the absence of the compounds of Formula (I) and was taken as 100%. […] All of the measurements were performed in triplicate.
On the technique in general: GTPγS is a poorly hydrolysed GTP analogue; its binding reports G protein activation.

Assay [2] addresses T2, cloned human MT2 receptors (Homo sapiens, UniProt P49286).
T2 construct: expressed in transfected cells
T2 sequence (P49286 1-362): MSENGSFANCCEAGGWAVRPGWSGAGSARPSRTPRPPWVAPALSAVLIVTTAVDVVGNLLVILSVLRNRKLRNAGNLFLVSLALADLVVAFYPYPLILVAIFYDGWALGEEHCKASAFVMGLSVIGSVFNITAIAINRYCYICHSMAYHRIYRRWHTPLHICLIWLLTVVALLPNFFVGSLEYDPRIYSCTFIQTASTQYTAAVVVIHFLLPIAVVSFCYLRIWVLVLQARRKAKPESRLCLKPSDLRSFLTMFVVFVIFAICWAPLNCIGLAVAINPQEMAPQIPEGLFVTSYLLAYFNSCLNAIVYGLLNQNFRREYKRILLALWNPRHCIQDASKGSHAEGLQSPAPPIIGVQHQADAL
Description: 2-[125I]iodomelatonin competition binding, human MT2 in NIH3T3 cells. As to conditions: human MT2 in NIH3T3 cells, calculated from IC50 by Cheng-Prusoff, mean of at least three determinations. As to the method: as §1

Assay [3] concerns the target T1, cloned human MT1 receptors. In words: 2-[125I]iodomelatonin competition binding, human MT1 in NIH3T3 cells. As to conditions: calculated from IC50 by Cheng-Prusoff, mean of at least three determinations. As to the method:
as §1

Assay [4] deals with T2, cloned human MT2 receptors. In words: [35S]GTPγS binding assay, NIH3T3 cells expressing human MT2. On MT2 Activity: key: A = agonist; PA = partial agonist; ANT = antagonist; IA = Inverse agonist. As to conditions: for MT2 IAr ± SEM (relative intrinsic activity): maximal net effect relative to MLT. Format: biochemical. As to the method: as §1

Structures are written as SMILES.

T1 sequence (P48039 whole entry): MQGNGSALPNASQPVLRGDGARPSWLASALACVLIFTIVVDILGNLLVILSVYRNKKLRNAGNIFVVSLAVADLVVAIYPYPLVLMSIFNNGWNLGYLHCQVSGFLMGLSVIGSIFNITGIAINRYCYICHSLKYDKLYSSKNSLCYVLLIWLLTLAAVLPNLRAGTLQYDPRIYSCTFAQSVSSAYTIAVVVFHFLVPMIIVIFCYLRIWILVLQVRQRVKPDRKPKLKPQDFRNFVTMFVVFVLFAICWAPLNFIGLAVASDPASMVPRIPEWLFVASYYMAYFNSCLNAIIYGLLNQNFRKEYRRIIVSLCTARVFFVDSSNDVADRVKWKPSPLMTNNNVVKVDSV

Regarding `COc1cccc(N(CCN(C)C(C)=O)c2ccccc2)c1` [compound 6], in assay [1], the “MT1 Activity” value is reported as “ANT” and the “MT1 IAr ± SEM (relative intrinsic activity)” value was −0.01 ± 0.03. Besides, the “MT2 pKi” value in assay [2] is reported as 7.28 ± 0.06. Further, the “MT1 pKi” value in assay [3] was 5.89 ± 0.07. For the same compound, in assay [4], the “MT2 Activity” value is “ANT” and the “MT2 IAr ± SEM (relative intrinsic activity)” value was −0.01 ± 0.03.
For the compound `COc1cccc(N(CCNC(=O)C2CCC2)c2ccccc2)c1` [5o, N-{2-[(3-Methoxyphenyl)-phenylamino]ethyl}cyclobutancarboxamide], the “MT1 IAr ± SEM (relative intrinsic activity)” value in assay [1] is given as 0.22 ± 0.01. In assay [2], the “MT2 pKi” value is on record as 8.43 ± 0.40. Also, in assay [3] (read-out: MT1 pKi (converted)), the Ki was 0.331 µM. The “MT2 IAr ± SEM (relative intrinsic activity)” value in assay [4] is 0.29 ± 0.01.
Consider `CC(=O)NCCN(c1ccccc1)c1cccc(Br)c1` [5f, N-{2-[(3-bromophenyl)-phenylamino]ethyl}acetamide], for which the “MT1 IAr ± SEM (relative intrinsic activity)” value in assay [1] came to 0.43 ± 0.04. In addition, the “MT2 pKi” value in assay [2] is recorded as 9.70 ± 0.43. Also, the “MT1 pKi” value in assay [3] is listed as 7.77 ± 0.19. Also, the “MT2 IAr ± SEM (relative intrinsic activity)” value in assay [4] amounted to 0.36 ± 0.01.
With `COc1cccc(NCCNC(C)=O)c1` [5l, N-[2{(3-Methoxyphenyl)-amino]ethyl}acetamide], the “MT1 IAr ± SEM (relative intrinsic activity)” value in assay [1] stood at 0.84 ± 0.01. Further, in assay [2] (read-out: MT2 pKi (converted)), the Ki is 0.00759 µM. Moreover, the “MT1 pKi” value in assay [3] is reported as 8.28 ± 0.01. Besides, the “MT2 IAr ± SEM (relative intrinsic activity)” value in assay [4] is given as 0.94 ± 0.03.
With `COc1cccc(N(CCNC(C)=O)c2cccc(OC)c2)c1` [5c, N-[2-(bis-3-methoxyphenylamino)ethyl]acetamide], the “MT1 IAr ± SEM (relative intrinsic activity)” value in assay [1] was determined as 0.59 ± 0.05. Further, the “MT2 pKi” value in assay [2] is on record as 10.56 ± 0.10. Besides, the “MT1 pKi” value in assay [3] was 7.72 ± 0.13. In addition, in assay [4], the “MT2 Activity” value is given as “ANT” and the “MT2 IAr ± SEM (relative intrinsic activity)” value was found to be 0.15 ± 0.01.
For `COc1cccc(N(CCNC(C)=O)c2ccc3ccccc3c2)c1` [5g, N-{2-[(3-Methoxyphenyl)-β-naphthylamino]ethyl}acetamide], in assay [1], the “MT1 Activity” value is listed as “ANT” and the “MT1 IAr ± SEM (relative intrinsic activity)” value is on record as 0.17 ± 0.03. Further, the “MT2 pKi” value in assay [2] is reported as 9.95 ± 0.64. For the same compound, the “MT1 pKi” value in assay [3] is 6.88 ± 0.07. Further, the “MT2 IAr ± SEM (relative intrinsic activity)” value in assay [4] is given as −0.20 ± 0.03.
As for `COc1cccc(N(C)CCCNC(C)=O)c1` [5m, N-{3-[(3-Methoxyphenyl)-methylamino]propyl}acetamide], in assay [1], the “MT1 IAr ± SEM (relative intrinsic activity)” value amounted to 0.87 ± 0.05. The “MT2 pKi” value in assay [2] is recorded as 8.70 ± 0.26. Further, in assay [3], the “MT1 pKi” value was 9.08 ± 0.04. In addition, the “MT2 IAr ± SEM (relative intrinsic activity)” value in assay [4] was 1.07 ± 0.06.
For `COc1cccc(N(CCNC(C)=O)Cc2ccccc2)c1` [5k, N-{2-[(3-Methoxyphenyl)-benzylamino]ethyl}acetamide], in that order: 0.92 ± 0.06, 9.12 ± 0.05, 7.30 ± 0.10 and 0.31 ± 0.02.
Turning to `CC(=O)NCCN(c1ccccc1)c1cccc(OCCCCc2ccccc2)c1` [5i], in assay [1], the “MT1 Activity” value is reported as “ANT” and the “MT1 IAr ± SEM (relative intrinsic activity)” value was 0.12 ± 0.02. Besides, the “MT2 pKi” value in assay [2] is reported as 6.48 ± 0.29. Besides, the “MT1 pKi” value in assay [3] is recorded as 7.45 ± 0.01. In addition, in assay [4], the “MT2 Activity” value is listed as “ANT” and the “MT2 IAr ± SEM (relative intrinsic activity)” value was 0.01 ± 0.01.
In the case of `COc1ccc(N(CCNC(C)=O)c2cccc(OC)c2)cc1` [5d, N-{2-[(4-Methoxyphenyl)-3-methoxyphenylamino]ethyl}acetamide], in assay [1], the “MT1 Activity” value was “ANT” and the “MT1 IAr ± SEM (relative intrinsic activity)” value amounted to 0.06 ± 0.03. The “MT2 pKi” value in assay [2] is recorded as 9.06 ± 0.10. Moreover, the “MT1 pKi” value in assay [3] is 7.00 ± 0.01. Also, in assay [4], the “MT2 Activity” value was “ANT” and the “MT2 IAr ± SEM (relative intrinsic activity)” value was 0.03 ± 0.01.
